Measured values published in patent US20210045385A1, “PYRIDAZINONE-SUBSTITUTED KETOXIMES AS HERBICIDES” (FMC Corporation, priority 2018, published 2021).

How the values were obtained:
Format in all cases: in vivo
[1] = tested on: blackgrass (Alopecurus myosuroides); assay: Test C postemergence, visual plant response rating
Procedure, shortened: (§1)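 Visual injury on a 0 (no effect) to 100 (complete control) scale versus untreated controls, scored approximately 10 d after treatment under greenhouse conditions. Treatments used surfactant-containing non-phytotoxic solvent formulations, sprayed onto loam–sand soil preemergence or onto one- to two-leaf plants 2–10 cm tall postemergence.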

[2] = tested on: Italian ryegrass (Lolium mutiflorum); assay: Test C postemergence, visual plant response rating
Procedure, shortened: as §1

[3] = tested on: barnyardgrass (Echinochloa crus-galli); assay: Test C postemergence, visual plant response rating
Procedure, shortened: as §1

corn (Zea mays) = assay: Test C postemergence, visual plant response rating
Procedure, shortened: as §1

[4] = tested on: foxtail, giant (giant foxtail, Setaria faberi); assay: Test C postemergence, visual plant response rating
Procedure, shortened: as §1

kochia (Bassia scoparia) [5] = assay: Test C postemergence, visual plant response rating
Procedure, shortened: as §1

[6] = tested on: galium (catchweed bedstraw, Galium aparine); assay: Test C postemergence, visual plant response rating
Procedure, shortened: as §1

[7] = tested on: pigweed (Amaranthus retroflexus); assay: Test C postemergence, visual plant response rating
Procedure, shortened: as §1

[8] = tested on: ragweed (common ragweed, Ambrosia artemisiifolia); assay: Test C postemergence, visual plant response rating
Procedure, shortened: as §1

[9] = tested on: wheat (Triticum aestivum); assay: Test C postemergence, visual plant response rating
Procedure, shortened: as §1

[10] = tested on: barnyardgrass (Echinochloa crus-galli); assay: Test D flooded paddy test, visual plant response rating; details: 250 g ai/ha, scale 0 to 100 (0 no effect, 100 complete control), 13 to 15 d
Procedure, shortened: (§2)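 Rating is visual, on a 0 (no effect) to 100 (complete control) scale versus controls, taken 13 to 15 d after treatment in a greenhouse. Treatment went into paddy water kept 3 cm above the soil surface, with plants at the 2-leaf stage.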

[11] = tested on: sedge umbrella (small-flower umbrella sedge, Cyperus difformis); assay: as above; details: 250 g ai/ha, scale 0 to 100 (0 no effect, 100 complete control), 13 to 15 d
Procedure, shortened: as §2

rice (Oryza sativa) = assay: as above; details: 250 g ai/ha, scale 0 to 100 (0 no effect, 100 complete control), 13 to 15 d
Procedure, shortened: as §2

[12] = tested on: duck salad (Heteranthera limosa); assay: as above; details: 250 g ai/ha, scale 0 to 100 (0 no effect, 100 complete control), 13 to 15 d
Procedure, shortened: as §2

[13] = tested on: Italian ryegrass (Lolium mutiflorum); assay: Test C preemergence, visual plant response rating
Procedure, shortened: as §1

[14] = tested on: barnyardgrass (Echinochloa crus-galli); assay: Test C preemergence, visual plant response rating
Procedure, shortened: as §1

[15] = tested on: foxtail, giant (giant foxtail, Setaria faberi); assay: Test C preemergence, visual plant response rating
Procedure, shortened: as §1

kochia (Bassia scoparia) [16] = assay: Test C preemergence, visual plant response rating
Procedure, shortened: as §1

[17] = tested on: pigweed (Amaranthus retroflexus); assay: Test C preemergence, visual plant response rating
Procedure, shortened: as §1

[18] = tested on: ragweed (common ragweed, Ambrosia artemisiifolia); assay: Test C preemergence, visual plant response rating
Procedure, shortened: as §1

[19] = Test C, postemergence, 125 g ai/ha
[20] = Test C, 31 g ai/ha, 0 is no effect, 100 is complete control
[21] = Test C, 125 g ai/ha, 0 is no effect, 100 is complete control
[22] = Test C, postemergence, 31 g ai/ha

In the case of `CON=C(c1cc(Cl)cc(Cl)c1Cl)c1c(O)c(C)nn(C)c1=O` [Compound 213], the “Blackgrass plant response rating (0 to 100 scale)” value (shortened to “Blackgrass plant response rating”) ([1]; Postemergence, 31 g ai/ha) was 30, the “Blackgrass plant response rating” value [1, 19] was 80 and the “Ryegrass, Italian plant response rating (0 to 100 scale)” value (from here on “Ryegrass, Italian plant response rating”) ([2]; Postemergence, 31 g ai/ha) was 90. The “Ryegrass, Italian plant response rating” value [2, 19] was 100, the “Barnyardgrass plant response rating (0 to 100 scale)” value (“Barnyardgrass plant response rating” below) ([3]; Postemergence, 31 g ai/ha) was 80 and the “Barnyardgrass plant response rating” value [3, 19] was 80. The “Corn plant response rating (0 to 100 scale)” value (shortened to “Corn plant response rating”) (corn (Zea mays); Postemergence, 31 g ai/ha) was 20, the “Corn plant response rating” value (corn (Zea mays); [19]) was 40 and the “Foxtail, Giant plant response rating (0 to 100 scale)” value (“Foxtail, Giant plant response rating” below) ([4]; Postemergence, 31 g ai/ha) was 70. For the same compound, the “Foxtail, Giant plant response rating” value [4, 19] was 80, the “Kochia plant response rating (0 to 100 scale)” value (“Kochia plant response rating” below) (kochia (Bassia scoparia) [5]; Postemergence, 31 g ai/ha) was 60 and the “Kochia plant response rating” value (kochia (Bassia scoparia) [5]; [19]) was 70. The “Galium plant response rating (0 to 100 scale)” value (“Galium plant response rating” below) ([6]; Postemergence, 31 g ai/ha) was 90, the “Galium plant response rating” value [6, 19] was 90 and the “Pigweed plant response rating (0 to 100 scale)” value (“Pigweed plant response rating” below) ([7]; Postemergence, 31 g ai/ha) was 80. The “Pigweed plant response rating” value [7, 19] was 90, the “Ragweed plant response rating (0 to 100 scale)” value (“Ragweed plant response rating” for short) ([8]; Postemergence, 31 g ai/ha) was 70 and the “Ragweed plant response rating” value [8, 19] was 80. The “Wheat plant response rating (0 to 100 scale)” value (from here on “Wheat plant response rating”) ([9]; Postemergence, 31 g ai/ha) was 40, the “Wheat plant response rating” value [9, 19] was 60 and the “Plant response rating, Barnyardgrass (Flood)” value [10] was 70. The “Plant response rating, Sedge, Umbrella (Flood)” value [11] was 90, the “Plant response rating, Rice (Flood)” value (rice (Oryza sativa)) was 40 and the “Plant response rating, Ducksalad (Flood)” value [12] was 70. For the same compound, the “Ryegrass, Italian plant response rating” value [13, 20] was 70, the “Ryegrass, Italian plant response rating” value [13, 21] was 100 and the “Barnyardgrass plant response rating” value [14, 20] was 70. For the same compound, the “Barnyardgrass plant response rating” value [14, 21] was 90, the “Foxtail, Giant plant response rating” value [15, 20] was 60 and the “Foxtail, Giant plant response rating” value [15, 21] was 80. For the same compound, the “Kochia plant response rating” value (kochia (Bassia scoparia) [16]; [20]) was 20, the “Kochia plant response rating” value (kochia (Bassia scoparia) [16]; [21]) was 80 and the “Pigweed plant response rating” value [17, 20] was 100. For the same compound, the “Pigweed plant response rating” value [17, 21] was 100, the “Ragweed plant response rating” value [18, 20] was 70 and the “Ragweed plant response rating” value [18, 21] was 100.
With `Cc1nn(C)c(=O)c(/C(=N/OCc2ccccc2)c2ccc(F)c3ccccc23)c1O` [Compound 158] the “Blackgrass plant response rating” value [1, 22] was 0, the “Blackgrass plant response rating” value [1, 19] was 10 and the “Ryegrass, Italian plant response rating” value ([2]; Postemergence, 31 g ai/ha) was 0. The “Ryegrass, Italian plant response rating” value [2, 19] was 20, the “Barnyardgrass plant response rating” value [3, 22] was 50 and the “Barnyardgrass plant response rating” value [3, 19] was 70. For the same compound, the “Corn plant response rating” value (corn (Zea mays); [22]) was 0, the “Corn plant response rating” value (corn (Zea mays); [19]) was 10 and the “Foxtail, Giant plant response rating” value [4, 22] was 30. The “Foxtail, Giant plant response rating” value [4, 19] was 70, the “Kochia plant response rating” value (kochia (Bassia scoparia) [5]; [22]) was 0 and the “Kochia plant response rating” value (kochia (Bassia scoparia) [5]; [19]) was 0. For the same compound, the “Galium plant response rating” value [6, 22] was 90, the “Galium plant response rating” value [6, 19] was 0 and the “Pigweed plant response rating” value ([7]; Postemergence, 31 g ai/ha) was 50. For the same compound, the “Pigweed plant response rating” value [7, 19] was 50, the “Ragweed plant response rating” value ([8]; Postemergence, 31 g ai/ha) was 40 and the “Ragweed plant response rating” value [8, 19] was 60. For the same compound, the “Wheat plant response rating” value ([9]; Postemergence, 31 g ai/ha) was 0, the “Wheat plant response rating” value [9, 19] was 0 and the “Plant response rating, Barnyardgrass (Flood)” value [10] was 45. The “Plant response rating, Sedge, Umbrella (Flood)” value [11] was 65, the “Plant response rating, Rice (Flood)” value (rice (Oryza sativa)) was 15 and the “Plant response rating, Ducksalad (Flood)” value [12] was 50. For the same compound, the “Ryegrass, Italian plant response rating” value ([13]; 125 g ai/ha) was 0, the “Ryegrass, Italian plant response rating” value [13, 20] was 0 and the “Barnyardgrass plant response rating” value ([14]; 125 g ai/ha) was 30. For the same compound, the “Barnyardgrass plant response rating” value [14, 20] was 20, the “Foxtail, Giant plant response rating” value ([15]; 125 g ai/ha) was 80 and the “Foxtail, Giant plant response rating” value [15, 20] was 10. For the same compound, the “Kochia plant response rating” value (kochia (Bassia scoparia) [16]; 125 g ai/ha) was 0, the “Kochia plant response rating” value (kochia (Bassia scoparia) [16]; [20]) was 0 and the “Pigweed plant response rating” value ([17]; 125 g ai/ha) was 50. The “Pigweed plant response rating” value [17, 20] was 0, the “Ragweed plant response rating” value ([18]; 125 g ai/ha) was 40 and the “Ragweed plant response rating” value [18, 20] was 40.
